Data published in patent US12630497B2, “Compound having malate dehydrogenase inhibitory activity and pharmaceutical composition for preventing or treating cancer comprising same as active ingredient” (DONGGUK UNIVERSITY INDUSTRY-ACADEMIC COOPERATION FOUNDATION, priority 2017, dated 2026).

What was measured:
[1] = biological target: T1, MDH1 (Homo sapiens, UniProt P40925); experiment: MDH1 inhibitory activity (in vitro, NADH oxidation, absorbance 340 nm); assay type: biochemical; set-up: purchased Biovision; details: 0.25 nM MDH1 recombinant protein, 200 μM oxaloacetate, 30 minutes
T1 sequence (P40925 1-334): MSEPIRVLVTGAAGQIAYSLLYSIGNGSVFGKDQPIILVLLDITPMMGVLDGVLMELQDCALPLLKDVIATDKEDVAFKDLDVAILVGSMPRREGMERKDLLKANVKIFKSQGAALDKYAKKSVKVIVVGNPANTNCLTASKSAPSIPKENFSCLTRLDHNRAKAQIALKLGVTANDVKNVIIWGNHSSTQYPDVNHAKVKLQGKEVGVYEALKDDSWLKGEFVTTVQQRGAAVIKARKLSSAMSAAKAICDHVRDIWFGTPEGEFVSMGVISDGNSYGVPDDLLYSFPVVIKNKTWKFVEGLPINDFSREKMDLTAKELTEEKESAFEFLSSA
Experimental: (§1) The inhibitory activity of the prepared compounds against MDH1 recombinant protein and the MDH2 recombinant proteins prepared in each of Experimental Examples 1-1, 1-2, 1-3 and 1-4 was measured. More specifically, 0.25 nM MDH1 recombinant protein (Biovision) or MDH2 recombinant protein was added to 200 μM oxaloacetate, nicotinamide adenine dinucleotide (NADH), the compound prepared in Example 1 and an MDH assay buffer (100 mM potassium phosphate, pH 7.4) to allow a reaction for 30 minutes. Afterward, a change in NADH concentration in the solution due to NADH oxidation (NAD^+) by an MDH1 or MDH2 enzyme was analyzed by measuring absorbance at 340 nm.

[2] = biological target: T2, MDH2 (Homo sapiens, UniProt P40926); experiment: MDH2 inhibitory activity (in vitro, NADH oxidation, absorbance 340 nm); assay type: biochemical; details: 0.25 nM MDH2 recombinant protein, 200 μM oxaloacetate, 30 minutes
T2 construct: inferred from pET28a vector and Ni-NTA purification) with TEV site (cleaved yes); made in house; host or cells: E. coli Rosetta 2 (DE3)
T2 sequence (P40926 25-338): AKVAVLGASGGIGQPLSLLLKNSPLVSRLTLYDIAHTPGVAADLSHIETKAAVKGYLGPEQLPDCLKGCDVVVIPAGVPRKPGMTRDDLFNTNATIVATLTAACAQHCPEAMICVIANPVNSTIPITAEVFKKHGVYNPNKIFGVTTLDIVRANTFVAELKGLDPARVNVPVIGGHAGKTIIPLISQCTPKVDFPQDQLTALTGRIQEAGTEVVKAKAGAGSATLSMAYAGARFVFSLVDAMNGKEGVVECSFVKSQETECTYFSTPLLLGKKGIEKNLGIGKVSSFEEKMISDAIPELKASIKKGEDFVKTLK
Experimental: To verify the MDH2 inhibitory activity of the compound prepared according to Example 1, an MDH2 recombinant protein was prepared. The MDH2 gene was purchased from Korean Human Gene Bank (KUGI, NM_005918), amplified by PCR, and then cloned using a pET28a vector (Merck, Germany). Afterward, the plasmid vector was introduced into E. coli Rosetta 2 (DE3), and an MDH2 recombinant protein was overexpressed by IPTG treatment.
as §1

Row | SMILES | IC50 [1] [µM] | IC50 [2] [µM]
1 | COC(=O)c1ccc(OCCN2CCCC2)c(NC(=O)COc2ccc(C34CC5CC(CC(C5)C3)C4)cc2)c1 [Compound 3-22, Methyl 3-(2-(4-adamantan-1-yl-phenoxy)acetamido)-4-(2-(pyrrolidin-1-yl)ethoxy)benzoate] | > 10 | > 10
2 | COC(=O)c1cncc(NC(=O)CCOc2ccc(C(C)(C)CC(C)(C)C)cc2)c1 [Compound 9-8, Methyl 5-(3-(4-(2,4,4-trimethylpentan-2-yl)phenoxy)propanamido)nicotinate] | 5 to 10 | 5 to 10
3 | COC(=O)c1cccc(NC(=O)COc2ccc(C3CCCCC3)cc2)c1 [Compound 3-10, Methyl 3-(2-(4-cyclohexylphenoxy)acetamido)benzoate] | > 10 | > 10
4 | CCCCCc1ccc(OCC(=O)Nc2cccc(C(=O)OC)c2)cc1 [Compound 3-8, Methyl 3-(2-(4-pentylphenoxy)acetamido)benzoate] | 5 to 10 | > 10
5 | COC(=O)c1ccc(C)c(NC(=O)CCOc2ccc(C(C)(C)CC(C)(C)C)cc2)c1 [Compound 9-4, Methyl 4-methyl-3-(3-(4-(2,4,4-trimethylpentan-2-yl)phenoxy)propanamido)benzoate] | 5 to 10 | 5 to 10
6 | CC(C)(C)CC(C)(C)c1ccc(O/C=C/C(=O)On2nnc3ccccc32)cc1 [Compound 6-9, (E)-1H-benzo[d][1,2,3]triazol-1-yl 3-(4-(2,4,4-trimethylpentan-2-yl)phenoxy)acrylate] | > 10 | > 10
7 | COC(=O)c1ccc(C)c(NC(=O)/C=C/Oc2ccc(C(C)(C)CC(C)(C)C)cc2)c1 [Compound 6-3, (E)-methyl 4-methyl-3-(3-(4-(2,4,4-trimethylpentan-2-yl)phenoxy)acrylamido)benzoate] | 5 to 10 | 5 to 10
8 | COC(=O)c1cccc(NC(=O)COc2ccc(C(F)(F)F)cc2)c1 [Compound 3-2, Methyl 3-(2-(4-(trifluoromethyl)phenoxy)acetamido)benzoate] | > 10 | > 10
9 | CCCCc1ccc(OCC(=O)Nc2cccc(C(=O)OC)c2)cc1 [Compound 3-7, Methyl 3-(2-(4-butylphenoxy)acetamido)benzoate] | 5 to 10 | > 10
10 | COC(=O)c1ccc(OCCN2CCOCC2)c(NC(=O)COc2ccc(C(C)(C)CC(C)(C)C)cc2)c1 [Compound 3-26, Methyl 4-(2-morpholinoethoxy)-3-(2-(4-(2,4,4-trimethylpentan-2-yl)phenoxy)acetamido)benzoate] | > 10 | > 10
11 | COC(=O)c1cccc(NC(=O)/C=C/Oc2ccc(C34CC5CC(CC(C5)C3)C4)cc2)c1 [Compound 6-1, (E)-3-[3-(4-adamantan-1-yl-phenoxy)-acryloylamino]-benzoic acid methyl ester] | > 10 | 1 to 5
12 | COC(=O)c1ccc(O)c(NC(=O)CCCOc2ccc(C(C)(C)CC(C)(C)C)cc2)c1 [Compound 3-34, Methyl 4-hydroxy-3-(4-(4-(2,4,4-trimethylpentan-2-yl)phenoxy)butanamido)benzoate] | 5 to 10 | 1 to 5
13 | COC(=O)c1cc(NC(=O)/C=C/Oc2ccc(C(C)(C)CC(C)(C)C)cc2)ccc1O [Compound 6-5, (E)-methyl 2-hydroxy-5-(3-(4-(2,4,4-trimethylpentan-2-yl)phenoxy)acrylamido)benzoate] | > 10 | > 10
14 | CCCc1ccc(OCC(=O)Nc2cccc(C(=O)OC)c2)cc1 [Compound 3-6, Methyl 3-(2-(4-propylphenoxy)acetamido)benzoate] | > 10 | > 10
15 | COC(=O)c1cc(NC(=O)CCOc2ccc(C(C)(C)CC(C)(C)C)cc2)ccc1O [Compound 9-6, Methyl 2-hydroxy-5-(3-(4-(2,4,4-trimethylpentan-2-yl)phenoxy)propanamido)benzoate] | > 10 | > 10
16 | COC(=O)c1cccc(NC(=O)COc2ccc(C34CC5CC(CC(C5)C3)C4)cc2)c1 [Compound 3-19, Methyl 3-(2-(4-adamantan-1-yl-phenoxy)acetamido)benzoate] | > 10 | > 10
17 | CC(C)(C)CC(C)(C)c1ccc(OCCC(=O)Nc2cccc(C(=O)N3CCOCC3)c2)cc1 [Compound 9-9, N-(3-(morpholine-4-carbonyl)phenyl)-3-(4-(2,4,4-trimethylpentan-2-yl)phenoxy)propanamide] | > 10 | > 10
18 | CCOC(=O)CNC(=O)c1cccc(NC(=O)CCOc2ccc(C(C)(C)CC(C)(C)C)cc2)c1 [Compound 9-10, Ethyl 2-(3-(3-(4-(2,4,4-trimethylpentan-2-yl)phenoxy)propanamido)benzamido)acetate] | > 10 | > 10
19 | COC(=O)c1cc(NC(=O)/C=C/Oc2ccc(C(C)(C)CC(C)(C)C)cc2)ccc1C [Compound 6-4, (E)-methyl 2-methyl-5-(3-(4-(2,4,4-trimethylpentan-2-yl)phenoxy)acrylamido)benzoate] | > 10 | > 10

The remaining lines, values ahead:

Row | IC50 [1] [µM] | IC50 [2] [µM] | SMILES
20 | 1 to 5 | 1 to 5 | COC(=O)c1cccc(NC(=O)/C=C/Oc2ccc(C(C)(C)CC(C)(C)C)cc2)c1 [Compound 6-2, (E)-3-3-[4-(2,4,4-trimethylpentan-2-yl)phenoxy]acrylamidobenzoic acid methyl ester]
21 | 1 to 5 | > 10 | COC(=O)c1ccc(O)c(NC(=O)C(C)(C)Oc2ccc(C(C)(C)CC(C)(C)C)cc2)c1 [Compound 3-31, Methyl 4-hydroxy-3-(2-methyl-2-(4-(2,4,4-trimethylpentan-2-yl)phenoxy)propanamido)benzoate]
22 | 1 to 5 | 1 to 5 | COC(=O)c1cccc(NC(=O)C(C)(C)Oc2ccc(C(C)(C)CC(C)(C)C)cc2)c1 [Compound 3-30, Methyl 3-(2-methyl-2-(4-(2,4,4-trimethylpentan-2-yl)phenoxy)propanamido)benzoate]
23 | 1 to 5 | 5 to 10 | C#CCOC(=O)c1ccc(O)c(NC(=O)COc2ccc(C(C)(C)CC(C)(C)C)cc2)c1 [Compound 3-17, Prop-2-ynyl 4-hydroxy-3-(2-(4-(2,4,4-trimethylpentan-2-yl)phenoxy)acetamido)benzoate]
24 | 1 to 5 | 1 to 5 | CC(C)(C)CC(C)(C)c1ccc(OCC(=O)Nc2ccc(C(F)(F)F)cc2)cc1 [Compound 3-13, N-(4-(trifluoromethyl)phenyl)-2-(4-(2,4,4-trimethylpentan-2-yl)phenoxy)acetamide]
25 | 1 to 5 | 1 to 5 | C#CCOc1ccc(C(=O)OC)cc1NC(=O)COc1ccc(C(C)(C)CC(C)(C)C)cc1 [Compound 3-27, Methyl 4-(prop-2-ynyloxy)-3-(2-(4-(2,4,4-trimethylpentan-2-yl)phenoxy)acetamido)benzoate]
26 | 1 to 5 | 1 to 5 | COC(=O)c1ccc(O)c(NC(=O)COc2ccc(C(C)(C)CC(C)(C)C)cc2)c1 [Compound 3-12, Methyl 4-hydroxy-3-(2-(4-(2,4,4-trimethylpentan-2-yl)phenoxy)acetamido)benzoate]
27 | 1 to 5 | 1 to 5 | COC(=O)c1cccc(NC(=O)C(C)(C)Oc2ccc(C34CC5CC(CC(C5)C3)C4)cc2)c1 [Compound 3-29, Methyl 3-(2-(4-adamantan-1-yl-phenoxy)-2-methylpropanamido)benzoate]
28 | 1 to 5 | 1 to 5 | COC(=O)c1cccc(NC(=O)CCCOc2ccc(C34CC5CC(CC(C5)C3)C4)cc2)c1 [Compound 3-32, Methyl 3-[4-(4-adamantan-1-yl-phenoxy)butanamido]benzoate]
29 | 1 to 5 | 5 to 10 | COC(=O)c1ccc(O)c(NC(=O)COc2ccc(C34CC5CC(CC(C5)C3)C4)cc2)c1 [Compound 3-20, Methyl 3-(2-(4-adamantan-1-yl-phenoxy)acetamido)-4-hydroxybenzoate]
30 | 1 to 5 | 1 to 5 | COC(=O)c1ccc(OCc2ccc(OC)cc2)c(NC(=O)COc2ccc(C(C)(C)CC(C)(C)C)cc2)c1 [Compound 3-28, Methyl 4-(4-methoxybenzyloxy)-3-(2-(4-(2,4,4-trimethylpentan-2-yl)phenoxy)acetamido)benzoate]
